Measurements taken from ChEMBL document CHEMBL5154885, “Synthesis and biological evaluation of Haspin inhibitors: Kinase inhibitory potency and cellular activity” (Eur J Med Chem, 2022).

Columns and labels:
[1] = target: Dual specificity protein kinase CLK1 (Mus musculus, UniProt P22518); assay: Inhibition of recombinant mouse CLK1 expressed in bacteria using GRSRSRSRSRSR as substrate in presence of ATP measured after 30 mins by ADP-Glo assay
[2] = target: Dual specificity tyrosine-phosphorylation-regulated kinase 1A (Rattus norvegicus, UniProt Q63470); assay: Inhibition of recombinant rat DYRK1A (1 to 499 residues ) expressed in bacterial expression system using KKISGRLSPIMTEQ as substrate measured after 30 mins in presence of ATP by ADP-Glo assay
[3] = Inhibition of human recombinant CDK9 expressed in baculovirus insect Sf9 cells using YSPTSPSYSPTSPSYSPTSPSKKKK as substrate measured after 30 mins in presence of ATP by ADP-Glo assay
[4] = target: Glycogen synthase kinase-3 beta (Homo sapiens, UniProt P49841); assay: Inhibition of human recombinant GSK3beta expressed in baculovirus in Sf9 insect cells using YRRAAVPPSPSLSRHSSPHQSpEDEEE as substrate measured after 30 mins by ADP-Glo kinase assay
Glycogen synthase kinase-3 beta, sequence (P49841 whole entry): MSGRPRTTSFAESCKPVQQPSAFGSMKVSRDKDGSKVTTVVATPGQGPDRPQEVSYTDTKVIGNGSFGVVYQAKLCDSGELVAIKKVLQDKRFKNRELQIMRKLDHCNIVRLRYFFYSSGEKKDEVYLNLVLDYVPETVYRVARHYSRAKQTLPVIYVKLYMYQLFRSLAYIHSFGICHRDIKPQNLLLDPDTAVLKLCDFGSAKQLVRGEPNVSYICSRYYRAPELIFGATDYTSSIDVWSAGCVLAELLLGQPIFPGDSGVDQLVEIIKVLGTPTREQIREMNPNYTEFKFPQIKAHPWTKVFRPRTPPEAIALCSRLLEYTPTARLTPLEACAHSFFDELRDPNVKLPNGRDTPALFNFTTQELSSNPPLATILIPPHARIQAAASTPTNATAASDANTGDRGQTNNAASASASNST

U2OS = assay: Cytotoxicity against human U2OS cells assessed as reduction in cell viability measured after 48 hrs by MTS assay
[5] = Cytotoxicity against human TERT-RPE1 cells assessed as reduction in cell viability measured after 48 hrs by MTS assay; type: toxicity, cell-based
HCT-116 = assay: Cytotoxicity against human HCT-116 cells assessed as reduction in cell viability measured after 48 hrs by MTS assay; conditions: HCT-116, 48 h
HBL-100 = assay: Cytotoxicity against human HBL-100 cells assessed as reduction in cell viability measured after 48 hrs by MTS assay; conditions: HBL-100, 48 h
SH-SY5Y = assay: Cytotoxicity against human SH-SY5Y cells assessed as reduction in cell viability measured after 48 hrs by MTS assay
[6] = target: T1, Serine/threonine-protein kinase haspin (Homo sapiens, UniProt Q8TF76)
T1 sequence (Q8TF76 whole entry): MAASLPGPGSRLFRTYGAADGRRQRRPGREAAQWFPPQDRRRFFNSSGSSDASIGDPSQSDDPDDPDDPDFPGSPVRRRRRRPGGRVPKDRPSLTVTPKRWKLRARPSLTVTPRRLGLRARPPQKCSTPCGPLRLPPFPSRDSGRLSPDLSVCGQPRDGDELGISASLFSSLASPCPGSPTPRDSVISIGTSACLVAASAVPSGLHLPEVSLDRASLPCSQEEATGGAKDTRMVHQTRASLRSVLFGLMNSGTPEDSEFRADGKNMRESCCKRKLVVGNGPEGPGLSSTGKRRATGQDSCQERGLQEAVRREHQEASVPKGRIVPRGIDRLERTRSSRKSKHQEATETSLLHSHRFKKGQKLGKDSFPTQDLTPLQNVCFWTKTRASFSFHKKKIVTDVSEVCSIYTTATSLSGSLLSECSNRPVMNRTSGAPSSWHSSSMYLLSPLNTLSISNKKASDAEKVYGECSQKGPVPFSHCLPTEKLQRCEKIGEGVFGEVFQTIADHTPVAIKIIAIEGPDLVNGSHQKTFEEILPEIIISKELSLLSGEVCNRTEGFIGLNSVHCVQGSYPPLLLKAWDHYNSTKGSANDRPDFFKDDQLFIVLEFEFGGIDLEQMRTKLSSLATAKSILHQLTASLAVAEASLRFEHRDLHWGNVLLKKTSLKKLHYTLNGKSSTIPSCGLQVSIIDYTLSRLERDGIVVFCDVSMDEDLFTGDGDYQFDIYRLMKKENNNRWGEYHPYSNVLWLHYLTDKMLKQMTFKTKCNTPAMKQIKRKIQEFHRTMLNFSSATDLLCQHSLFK

[7] = target: Serine/threonine-protein kinase pim-1 (Homo sapiens, UniProt P11309); assay: Inhibition of recombinant human PIM1 expressed in bacterial expression system using histone H1 as substrate measured after 30 mins in presence of ATP by ADP-Glo assay
Serine/threonine-protein kinase pim-1, sequence (P11309 whole entry, canonical isoform): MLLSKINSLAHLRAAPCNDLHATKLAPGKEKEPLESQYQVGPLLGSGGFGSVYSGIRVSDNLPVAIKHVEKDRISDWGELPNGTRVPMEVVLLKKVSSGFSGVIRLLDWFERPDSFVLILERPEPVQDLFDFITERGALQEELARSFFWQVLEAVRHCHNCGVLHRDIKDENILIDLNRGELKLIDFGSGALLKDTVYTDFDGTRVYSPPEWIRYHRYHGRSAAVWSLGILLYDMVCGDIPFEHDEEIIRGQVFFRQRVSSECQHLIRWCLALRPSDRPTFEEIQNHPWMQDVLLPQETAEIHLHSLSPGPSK

[8] = target: Casein kinase I isoform epsilon (Homo sapiens, UniProt P49674); assay: Inhibition of human recombinant CK1 epsilon expressed in baculovirus in sf9 insect cells using RRKHAAIGSpAYSITA as substrate in presence of ATP measured after 30 mins by ADP-Glo assay
Casein kinase I isoform epsilon, sequence (P49674 whole entry, canonical isoform): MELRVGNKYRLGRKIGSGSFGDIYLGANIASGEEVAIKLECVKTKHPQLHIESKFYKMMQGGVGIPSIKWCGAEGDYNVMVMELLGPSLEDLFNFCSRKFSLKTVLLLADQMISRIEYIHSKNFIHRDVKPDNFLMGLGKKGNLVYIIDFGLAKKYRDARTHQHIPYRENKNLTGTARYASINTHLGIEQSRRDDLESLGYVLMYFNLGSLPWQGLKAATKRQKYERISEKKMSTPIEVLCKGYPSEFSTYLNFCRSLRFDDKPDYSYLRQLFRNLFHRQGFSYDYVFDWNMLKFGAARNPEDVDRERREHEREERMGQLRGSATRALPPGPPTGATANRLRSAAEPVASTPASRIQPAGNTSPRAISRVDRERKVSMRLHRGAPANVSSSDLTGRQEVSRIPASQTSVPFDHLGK

[9] = target: Cyclin-dependent kinase 5/CDK5 activator 1 (Homo sapiens, UniProt Q00535); assay: Inhibition of human recombinant CDK5/p25 expressed in bacterial expression system using histone H1 as substrate in presence of ATP at measured after 30 mins by ADP-Glo assay
Cyclin-dependent kinase 5/CDK5 activator 1, sequence (Q00535 whole entry): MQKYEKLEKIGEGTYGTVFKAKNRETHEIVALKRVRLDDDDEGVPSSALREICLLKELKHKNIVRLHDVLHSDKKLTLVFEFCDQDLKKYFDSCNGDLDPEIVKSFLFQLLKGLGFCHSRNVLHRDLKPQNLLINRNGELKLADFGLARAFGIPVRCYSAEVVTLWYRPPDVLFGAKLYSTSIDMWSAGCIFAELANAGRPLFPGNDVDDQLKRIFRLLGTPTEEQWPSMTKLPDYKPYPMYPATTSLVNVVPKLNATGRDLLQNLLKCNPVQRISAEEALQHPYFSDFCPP
Cyclin-dependent kinase 5/CDK5 activator 1, sequence (Q15078 whole entry, further chain): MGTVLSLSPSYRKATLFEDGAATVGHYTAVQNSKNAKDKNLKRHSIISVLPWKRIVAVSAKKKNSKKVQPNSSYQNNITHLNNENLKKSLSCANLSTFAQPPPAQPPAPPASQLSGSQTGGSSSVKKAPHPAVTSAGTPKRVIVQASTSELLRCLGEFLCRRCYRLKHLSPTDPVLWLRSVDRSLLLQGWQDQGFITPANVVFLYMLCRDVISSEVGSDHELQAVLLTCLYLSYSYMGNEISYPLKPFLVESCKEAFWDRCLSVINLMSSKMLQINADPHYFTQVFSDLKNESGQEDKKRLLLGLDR

[10] = target: Tyrosine-protein kinase ABL1 (Homo sapiens, UniProt P00519); assay: Inhibition of human recombinant ABL1 expressed in baculovirus sf9 insect cells using EAIYAAPFAKKK as substrate measured after 30 mins in presence of ATP by ADP-Glo assay
[11] = target: T2, Tyrosine-protein kinase JAK3 (Homo sapiens, UniProt P52333); assay: Inhibition of human recombinant JAK3 expressed in baculovirus sf9 insect cells using GGEEEEYFELVKKKK as substrate measured after 30 mins in presence of ATP by ADP-Glo assay
T2 sequence (P52333 whole entry): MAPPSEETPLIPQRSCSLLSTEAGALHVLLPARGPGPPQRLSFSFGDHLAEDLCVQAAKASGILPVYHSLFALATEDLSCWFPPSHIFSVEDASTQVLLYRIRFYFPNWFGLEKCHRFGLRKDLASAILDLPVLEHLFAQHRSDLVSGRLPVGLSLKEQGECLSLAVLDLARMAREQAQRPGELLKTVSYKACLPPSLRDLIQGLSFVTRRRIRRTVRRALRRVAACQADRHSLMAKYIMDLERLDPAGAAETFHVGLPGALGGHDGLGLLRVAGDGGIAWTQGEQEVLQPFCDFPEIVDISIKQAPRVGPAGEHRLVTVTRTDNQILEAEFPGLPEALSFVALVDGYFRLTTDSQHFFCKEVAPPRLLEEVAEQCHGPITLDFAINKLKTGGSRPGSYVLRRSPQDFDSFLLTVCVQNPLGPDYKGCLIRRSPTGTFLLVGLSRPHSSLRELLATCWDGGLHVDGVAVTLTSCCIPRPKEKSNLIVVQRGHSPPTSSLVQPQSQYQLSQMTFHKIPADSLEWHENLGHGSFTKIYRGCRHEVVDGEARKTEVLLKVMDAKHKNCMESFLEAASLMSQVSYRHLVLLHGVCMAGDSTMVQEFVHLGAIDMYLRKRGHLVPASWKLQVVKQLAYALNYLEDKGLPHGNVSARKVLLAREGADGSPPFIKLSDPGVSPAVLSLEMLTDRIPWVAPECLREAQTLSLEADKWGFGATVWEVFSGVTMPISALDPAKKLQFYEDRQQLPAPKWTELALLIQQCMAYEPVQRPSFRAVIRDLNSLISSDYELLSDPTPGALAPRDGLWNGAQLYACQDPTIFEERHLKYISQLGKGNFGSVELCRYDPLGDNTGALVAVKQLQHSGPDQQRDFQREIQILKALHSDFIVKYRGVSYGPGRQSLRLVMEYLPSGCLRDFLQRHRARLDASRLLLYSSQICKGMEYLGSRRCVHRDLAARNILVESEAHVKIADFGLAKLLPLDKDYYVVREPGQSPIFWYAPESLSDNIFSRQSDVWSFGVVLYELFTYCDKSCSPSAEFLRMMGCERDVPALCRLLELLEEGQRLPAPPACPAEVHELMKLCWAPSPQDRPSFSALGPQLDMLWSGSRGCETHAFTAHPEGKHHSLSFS

[12] = target: Serine/threonine-protein kinase PLK1 (Homo sapiens, UniProt P53350); assay: Inhibition of human PLK1 in presence of ATP by kinomescan assay
Serine/threonine-protein kinase PLK1, sequence (P53350 whole entry): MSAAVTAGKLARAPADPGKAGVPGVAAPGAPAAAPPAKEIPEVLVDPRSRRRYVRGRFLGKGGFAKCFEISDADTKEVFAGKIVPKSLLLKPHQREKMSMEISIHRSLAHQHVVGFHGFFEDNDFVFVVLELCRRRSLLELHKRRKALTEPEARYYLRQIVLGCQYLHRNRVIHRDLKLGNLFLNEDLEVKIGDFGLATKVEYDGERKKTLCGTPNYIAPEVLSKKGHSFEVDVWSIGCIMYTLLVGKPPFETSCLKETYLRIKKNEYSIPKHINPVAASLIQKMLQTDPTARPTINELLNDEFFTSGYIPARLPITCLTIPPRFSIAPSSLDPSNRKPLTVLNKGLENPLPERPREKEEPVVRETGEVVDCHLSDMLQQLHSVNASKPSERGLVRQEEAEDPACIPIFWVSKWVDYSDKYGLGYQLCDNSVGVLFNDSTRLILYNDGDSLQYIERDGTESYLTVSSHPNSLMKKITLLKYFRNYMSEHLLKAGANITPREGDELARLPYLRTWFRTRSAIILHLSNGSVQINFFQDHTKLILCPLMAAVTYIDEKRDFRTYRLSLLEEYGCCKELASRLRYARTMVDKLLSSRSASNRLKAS

[13] = target: Serine/threonine-protein kinase PLK2 (Homo sapiens, UniProt Q9NYY3); assay: Inhibition of human PLK2 in presence of ATP by kinomescan assay
Serine/threonine-protein kinase PLK2, sequence (Q9NYY3 whole entry): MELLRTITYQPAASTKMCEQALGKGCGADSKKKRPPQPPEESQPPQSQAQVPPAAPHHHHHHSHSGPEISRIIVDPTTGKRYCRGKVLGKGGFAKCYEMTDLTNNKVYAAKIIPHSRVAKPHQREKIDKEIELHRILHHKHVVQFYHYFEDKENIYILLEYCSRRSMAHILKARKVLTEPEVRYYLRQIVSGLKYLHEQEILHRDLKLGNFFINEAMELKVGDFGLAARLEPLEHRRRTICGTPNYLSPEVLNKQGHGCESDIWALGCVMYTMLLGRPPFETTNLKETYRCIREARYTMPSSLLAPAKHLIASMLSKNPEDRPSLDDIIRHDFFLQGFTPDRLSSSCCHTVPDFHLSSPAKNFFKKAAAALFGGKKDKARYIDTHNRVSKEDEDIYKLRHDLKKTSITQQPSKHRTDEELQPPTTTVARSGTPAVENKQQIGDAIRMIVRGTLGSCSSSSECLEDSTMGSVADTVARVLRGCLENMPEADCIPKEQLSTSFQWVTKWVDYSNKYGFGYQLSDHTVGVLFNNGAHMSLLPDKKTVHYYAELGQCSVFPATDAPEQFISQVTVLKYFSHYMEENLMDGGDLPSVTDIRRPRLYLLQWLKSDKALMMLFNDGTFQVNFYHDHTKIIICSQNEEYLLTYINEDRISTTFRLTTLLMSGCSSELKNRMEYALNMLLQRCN

[14] = target: Serine/threonine-protein kinase PLK3 (Homo sapiens, UniProt Q9H4B4); assay: Inhibition of human recombinant PLK3 in presence of ATP by kinomescan assay
Serine/threonine-protein kinase PLK3, sequence (Q9H4B4 whole entry): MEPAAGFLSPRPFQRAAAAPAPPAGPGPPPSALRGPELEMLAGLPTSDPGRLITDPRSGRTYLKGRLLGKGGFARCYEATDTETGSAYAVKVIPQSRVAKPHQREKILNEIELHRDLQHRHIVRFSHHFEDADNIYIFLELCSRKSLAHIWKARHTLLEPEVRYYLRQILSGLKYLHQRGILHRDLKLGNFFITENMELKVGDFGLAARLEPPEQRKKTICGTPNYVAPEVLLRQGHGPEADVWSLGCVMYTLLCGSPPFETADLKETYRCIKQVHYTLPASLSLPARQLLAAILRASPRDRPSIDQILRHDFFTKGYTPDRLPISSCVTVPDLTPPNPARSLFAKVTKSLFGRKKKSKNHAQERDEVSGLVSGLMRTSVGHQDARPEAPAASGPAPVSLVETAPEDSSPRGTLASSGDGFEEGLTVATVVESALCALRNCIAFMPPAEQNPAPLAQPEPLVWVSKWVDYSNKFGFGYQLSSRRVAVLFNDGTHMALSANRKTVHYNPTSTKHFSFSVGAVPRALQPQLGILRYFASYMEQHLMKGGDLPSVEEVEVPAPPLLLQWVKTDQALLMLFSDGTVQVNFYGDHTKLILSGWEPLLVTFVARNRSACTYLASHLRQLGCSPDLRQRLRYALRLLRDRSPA

[15] = target: Death-associated protein kinase 3 (Homo sapiens, UniProt O43293); assay: Inhibition of human DAPK3 in presence of ATP by kinomescan assay
Death-associated protein kinase 3, sequence (O43293 whole entry): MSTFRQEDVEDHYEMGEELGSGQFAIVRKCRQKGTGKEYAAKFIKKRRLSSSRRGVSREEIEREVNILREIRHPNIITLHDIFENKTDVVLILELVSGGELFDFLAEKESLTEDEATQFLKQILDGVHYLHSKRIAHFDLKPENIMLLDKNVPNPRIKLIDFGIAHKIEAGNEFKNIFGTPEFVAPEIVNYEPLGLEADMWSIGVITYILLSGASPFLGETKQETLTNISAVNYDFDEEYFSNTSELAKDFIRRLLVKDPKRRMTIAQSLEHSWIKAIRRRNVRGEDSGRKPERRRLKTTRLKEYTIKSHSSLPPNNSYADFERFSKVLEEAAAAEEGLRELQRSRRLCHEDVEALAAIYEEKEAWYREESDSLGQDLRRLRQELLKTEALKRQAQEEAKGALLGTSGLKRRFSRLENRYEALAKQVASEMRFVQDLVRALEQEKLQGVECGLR

Dual specificity protein kinase CLK1, sequence (P22518 whole entry, the tested form may be a part): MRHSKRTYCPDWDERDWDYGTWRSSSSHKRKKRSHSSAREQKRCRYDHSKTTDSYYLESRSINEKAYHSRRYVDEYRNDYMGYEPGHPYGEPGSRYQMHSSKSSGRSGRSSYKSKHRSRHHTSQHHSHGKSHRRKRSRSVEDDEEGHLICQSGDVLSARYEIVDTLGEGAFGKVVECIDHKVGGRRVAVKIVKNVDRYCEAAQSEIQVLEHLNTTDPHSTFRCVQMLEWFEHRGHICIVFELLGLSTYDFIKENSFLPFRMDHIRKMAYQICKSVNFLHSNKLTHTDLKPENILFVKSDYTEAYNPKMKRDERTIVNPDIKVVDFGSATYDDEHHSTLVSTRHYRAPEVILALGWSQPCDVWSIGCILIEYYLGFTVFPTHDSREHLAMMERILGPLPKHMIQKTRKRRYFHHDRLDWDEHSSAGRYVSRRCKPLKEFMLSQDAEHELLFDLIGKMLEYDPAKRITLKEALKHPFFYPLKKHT

| Structure (SMILES) | IC50 [1] [nM] | IC50 [2] [nM] | IC50 [6] [nM] | further results |
| --- | --- | --- | --- | --- |
| Nc1ccc2cc3cnccc3c([N+](=O)[O-])c2n1 | 20 | 87 | 3 | IC50 [3]: 24 nM; IC50 [4]: 418 nM; EC50 (U2OS): 300 nM; EC50 at 48 h [5]: 400 nM; EC50 (HCT-116): 200 nM; EC50 (HBL-100): 800 nM; EC50 (SH-SY5Y): 200 nM |
| CSc1ncc2cc3cnccc3c([N+](=O)[O-])c2n1 |  |  | 119 | IC50 [3]: 407 nM; EC50 at 48 h [5]: 800 nM; EC50 (HCT-116): 1100 nM; EC50 (HBL-100): 1300 nM; EC50 (SH-SY5Y): 1200 nM |
| CCCNc1ccc2ncc(-c3ccc4[nH]ncc4c3)n2n1 | 8 | 13 |  | IC50 [7]: 29 nM; IC50 [4]: 53 nM; IC50 [8]: 99 nM; IC50 [9]: 41 nM; IC50 [10]: 162 nM; IC50 [11]: 119 nM |
| CCSc1ncc2cc3cnccc3c(N)c2n1 |  |  | 124 |  |
| CSc1ncc2cc3cnccc3c(N)c2n1 | 37 | 47 | 12 | IC50 [3]: 189 nM |
| COc1ncc2cc3cnccc3c([N+](=O)[O-])c2n1 |  |  |  | EC50 at 48 h [5]: 3200 nM; IC50 [12]: 294 nM; IC50 [13]: 125 nM; IC50 [14]: 117 nM; IC50 [15]: 578 nM |
| COc1ncc2cc3cnccc3c(N)c2n1 |  |  | 159 |  |
| CC(C)Sc1ncc2cc3cnccc3c(N)c2n1 | 72 | 594 | 56 |  |
| CCCCSc1ncc2cc3cnccc3c([N+](=O)[O-])c2n1 |  |  | 1040 |  |

Further molecules by falling IC50 [6], results first:

| IC50 [1] [nM] | IC50 [2] [nM] | IC50 [6] [nM] | Structure (SMILES) | further results |
| --- | --- | --- | --- | --- |
|  |  | 897 | CCOC(=O)CCSc1ncc2cc3cnccc3c([N+](=O)[O-])c2n1 |  |
|  |  | 484 | CCC(C)Sc1ncc2cc3cnccc3c([N+](=O)[O-])c2n1 (centres undefined) |  |
|  |  | 432 | CCCCCSc1ncc2cc3cnccc3c(N)c2n1 |  |
|  |  | 202 | CCC(C)Sc1ncc2cc3cnccc3c(N)c2n1 (centres undefined) |  |
|  |  | 169 | CCCSc1ncc2cc3cnccc3c([N+](=O)[O-])c2n1 |  |
|  |  | 114 | CC(C)Sc1ncc2cc3cnccc3c([N+](=O)[O-])c2n1 |  |
| 148 | 515 | 91 | CCSc1ncc2cc3cnccc3c([N+](=O)[O-])c2n1 |  |
| 92 | 132 | 69 | CCCCSc1ncc2cc3cnccc3c(N)c2n1 |  |
| 90 | 148 | 65 | CCCSc1ncc2cc3cnccc3c(N)c2n1 |  |
